According to patent US4731451A, “N-((2-oxo-3(2H)benzothiazolyl)methyl)-2-chloroacetanilides” (Monsanto Company, priority 1980, dated 1988):

Experiments:
Format in all cases: in vivo
[1] = tested on: Morningglory; experiment: Pre-emergent herbicidal activity (Table III)
Description: (§1) The pre-emergence tests are conducted as follows:
(§2) A good grade of top soil is placed in aluminum pans and compacted to a depth of three-eighths to one-half inch from the top of the pan. On the top of the soil is placed a predetermined number of seeds or vegetative propagules of various plant species. The soil required to level fill the pans after seeding or adding vegetative propagules is weighed into a pan. A known amount of the active ingredient applied in a solvent or as a wettable powder suspension and the soil are thoroughly mixed, and used as a cover layer for prepared pans. After treatment, the pans are moved into a greenhouse bench where they are watered from below as needed to give adequate moisture for germination and growth.
(§3) Approximately 2-3 weeks after seeding and treating, the plants are observed and the results recorded. The herbicidal rating is obtained by means of fixed scale based on the percent injury of each plant species. The ratings are defined as follows: […]
(§4) The compounds were further tested by utilizing the above procedure on the following plant species: […]

[2] = tested on: Barnyardgrass; experiment: Pre-emergent herbicidal activity (Table III)
Description: as §1, §2, §3, §4

[3] = tested on: Smartweed; experiment: Pre-emergent herbicidal activity (Table III)
Description: as §1, §2, §3, §4

[4] = tested on: Lambsquarters; experiment: Pre-emergent herbicidal activity (Table III)
Description: as §1, §2, §3, §4

[5] = tested on: Sugarbeet; experiment: Pre-emergent herbicidal activity (Table III)
Description: as §1, §2, §3, §4

[6] = tested on: Cocklebur; experiment: Pre-emergent herbicidal activity (Table III)
Description: as §1, §2, §3, §4

[7] = tested on: Crabgrass; experiment: Pre-emergent herbicidal activity (Table III)
Description: as §1, §2, §3, §4

[8] = tested on: Sorghum; experiment: Pre-emergent herbicidal activity (Table III)
Description: as §1, §2, §3, §4

[9] = tested on: Hemp Sesbania; experiment: Pre-emergent herbicidal activity (Table III)
Description: as §1, §2, §3, §4

[10] = tested on: Rice; experiment: Pre-emergent herbicidal activity (Table III)
Description: as §1, §2, §3, §4

[11] = tested on: Downy Brome; experiment: Pre-emergent herbicidal activity (Table III)
Description: as §1, §2, §3, §4

[12] = tested on: Wild Buckwheat; experiment: Pre-emergent herbicidal activity (Table III)
Description: as §1, §2, §3, §4

[13] = tested on: Panicum; experiment: Pre-emergent herbicidal activity (Table III)
Description: as §1, §2, §3, §4

[14] = tested on: Velvetleaf; experiment: Pre-emergent herbicidal activity (Table III)
Description: as §1, §2, §3, §4

[15] = tested on: Soybean; experiment: Pre-emergent herbicidal activity (Table III)
Description: as §1, §2, §3, §4

[16] = tested on: Wheat; experiment: Pre-emergent herbicidal activity (Table III)
Description: as §1, §2, §3, §4

[17] = tested on: Johnsongrass; experiment: Pre-emergent herbicidal activity (Table II); details: 2-3 weeks
Outline: (§5)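 Percent injury, converted to a fixed-scale rating, is recorded roughly 2-3 weeks after seeding and treatment. The active ingredient is blended into the cover-layer soil laid over seeded pans, which then sit in a greenhouse with bottom watering as needed.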

[18] = tested on: Morningglory; experiment: Pre-emergent herbicidal activity (Table II); details: 2-3 weeks
Outline: as §5

[19] = tested on: Barnyardgrass; experiment: Pre-emergent herbicidal activity (Table II); details: 2-3 weeks
Outline: as §5

[20] = tested on: Smartweed; experiment: Pre-emergent herbicidal activity (Table II); details: 2-3 weeks
Outline: as §5

[21] = tested on: Lambsquarters; experiment: Pre-emergent herbicidal activity (Table II); details: 2-3 weeks
Outline: as §5

[22] = tested on: Cocklebur; experiment: Pre-emergent herbicidal activity (Table II); details: 2-3 weeks
Outline: as §5

[23] = tested on: Downy Brome; experiment: Pre-emergent herbicidal activity (Table II); details: 2-3 weeks
Outline: as §5

[24] = tested on: Canada Thistle; experiment: Pre-emergent herbicidal activity (Table II); details: 2-3 weeks
Outline: as §5

[25] = tested on: Quackgrass; experiment: Pre-emergent herbicidal activity (Table II); details: 2-3 weeks
Outline: as §5

[26] = tested on: Velvetleaf; experiment: Pre-emergent herbicidal activity (Table II); details: 2-3 weeks
Outline: as §5

[27] = tested on: Yellow Nutsedge; experiment: Pre-emergent herbicidal activity (Table II); details: 2-3 weeks
Outline: as §5
Note: ranges in brackets are in %.

## N--[(2-oxo-3(2H)--benzothiazolyl)methyl]-N--(2-ethyl-6-methyl-1-cyclohexen-1-yl)-2-chloro-acetamide, mixed with its -N--[(2-oxo-3(2H)--benzothiazolyl)methyl]-N--(2-methyl-6-ethyl-1-cyclohexen-1-yl)-2-chloroacetamide [Example 4]
[1]; 0.28 kg/ha
  Herbicidal rating: 1 (25-49)
[1]; 1.12 kg/ha
  Herbicidal rating: 0 (0-24)
[1]; 5.6 kg/ha
  Herbicidal rating: 1 (25-49)
[2]; 0.28 kg/ha
  Herbicidal rating: 0 (0-24)
[2]; 1.12 kg/ha
  Herbicidal rating: 3 (75-100)
[2]; 5.6 kg/ha
  Herbicidal rating: 3 (75-100)
[3]; 0.28 kg/ha
  Herbicidal rating: 0 (0-24)
[3]; 1.12 kg/ha
  Herbicidal rating: 3 (75-100)
[3]; 5.6 kg/ha
  Herbicidal rating: 3 (75-100)
[4]; 0.28 kg/ha
  Herbicidal rating: 0 (0-24)
[4]; 1.12 kg/ha
  Herbicidal rating: 2 (50-74)
[4]; 5.6 kg/ha
  Herbicidal rating: 3 (75-100)
[5]; 0.28 kg/ha
  Herbicidal rating: 1 (25-49)
[5]; 1.12 kg/ha
  Herbicidal rating: 0 (0-24)
[5]; 5.6 kg/ha
  Herbicidal rating: 1 (25-49)
[6]; 1.12 kg/ha
  Herbicidal rating: 0 (0-24)
[6]; 5.6 kg/ha
  Herbicidal rating: 3 (75-100)
[7]; 0.28 kg/ha
  Herbicidal rating: 2 (50-74)
[7]; 1.12 kg/ha
  Herbicidal rating: 3 (75-100)
[7]; 5.6 kg/ha
  Herbicidal rating: 3 (75-100)
[8]; 0.28 kg/ha
  Herbicidal rating: 0 (0-24)
[8]; 1.12 kg/ha
  Herbicidal rating: 0 (0-24)
[8]; 5.6 kg/ha
  Herbicidal rating: 0 (0-24)
[9]; 0.28 kg/ha
  Herbicidal rating: 0 (0-24)
[9]; 1.12 kg/ha
  Herbicidal rating: 0 (0-24)
[9]; 5.6 kg/ha
  Herbicidal rating: 3 (75-100)
[10]; 0.28 kg/ha
  Herbicidal rating: 0 (0-24)
[10]; 1.12 kg/ha
  Herbicidal rating: 0 (0-24)
[10]; 5.6 kg/ha
  Herbicidal rating: 1 (25-49)
[11]; 0.28 kg/ha
  Herbicidal rating: 0 (0-24)
[11]; 1.12 kg/ha
  Herbicidal rating: 0 (0-24)
[11]; 5.6 kg/ha
  Herbicidal rating: 0 (0-24)
[12]; 0.28 kg/ha
  Herbicidal rating: 0 (0-24)
[12]; 1.12 kg/ha
  Herbicidal rating: 0 (0-24)
[12]; 5.6 kg/ha
  Herbicidal rating: 0 (0-24)
[13]; 0.28 kg/ha
  Herbicidal rating: 0 (0-24)
[13]; 1.12 kg/ha
  Herbicidal rating: 0 (0-24)
[13]; 5.6 kg/ha
  Herbicidal rating: 2 (50-74)
[14]; 0.28 kg/ha
  Herbicidal rating: 0 (0-24)
[14]; 1.12 kg/ha
  Herbicidal rating: 0 (0-24)
[14]; 5.6 kg/ha
  Herbicidal rating: 0 (0-24)
[15]; 0.28 kg/ha
  Herbicidal rating: 0 (0-24)
[15]; 1.12 kg/ha
  Herbicidal rating: 0 (0-24)
[15]; 5.6 kg/ha
  Herbicidal rating: 0 (0-24)
[16]; 0.28 kg/ha
  Herbicidal rating: 0 (0-24)
[16]; 1.12 kg/ha
  Herbicidal rating: 0 (0-24)
[16]; 5.6 kg/ha
  Herbicidal rating: 0 (0-24)
[17]; 5.6 kg/ha
  Herbicidal rating: 0 (0-24)
[17]; 11.2 kg/ha
  Herbicidal rating: 3 (75-100)
[18]; 5.6 kg/ha
  Herbicidal rating: 0 (0-24)
[18]; 11.2 kg/ha
  Herbicidal rating: 0 (0-24)
[19]; 5.6 kg/ha
  Herbicidal rating: 3 (75-100)
[19]; 11.2 kg/ha
  Herbicidal rating: 3 (75-100)
[20]; 5.6 kg/ha
  Herbicidal rating: 0 (0-24)
[20]; 11.2 kg/ha
  Herbicidal rating: 0 (0-24)
[21]; 5.6 kg/ha
  Herbicidal rating: 1 (25-49)
[21]; 11.2 kg/ha
  Herbicidal rating: 3 (75-100)
[22]; 5.6 kg/ha
  Herbicidal rating: 0 (0-24)
[22]; 11.2 kg/ha
  Herbicidal rating: 0 (0-24)
[23]; 5.6 kg/ha
  Herbicidal rating: 1 (25-49)
[23]; 11.2 kg/ha
  Herbicidal rating: 1 (25-49)
[24]; 5.6 kg/ha
  Herbicidal rating: 1 (25-49)
[24]; 11.2 kg/ha
  Herbicidal rating: 2 (50-74)
[25]; 5.6 kg/ha
  Herbicidal rating: 0 (0-24)
[25]; 11.2 kg/ha
  Herbicidal rating: 0 (0-24)
[26]; 5.6 kg/ha
  Herbicidal rating: 0 (0-24)
[26]; 11.2 kg/ha
  Herbicidal rating: 0 (0-24)
[27]; 5.6 kg/ha
  Herbicidal rating: 0 (0-24)
[27]; 11.2 kg/ha
  Herbicidal rating: 0 (0-24)
